The record followed here is patent EP0244803B1, “Novel dopamine beta hydroxylase inhibitors” (MERRELL DOW PHARMACEUTICALS INC., priority 1986, dated 1987).

The test system of assay [1] is spontaneously hypertensive rats (SHR's). Briefly: Antihypertensive effect: blood pressure monitored continuously in SHR's after ip administration. Format: in vivo. Particulars: 50 mg/kg; for Max Change MBP: mean difference ± standard deviation; for Max Change MBP (percent, in parentheses): percent change printed in parentheses. The protocol:
The test compound is administered intraperitoneally (ip) to rats and the blood pressure monitored continuously.

For assay [2], the system named is DBH. Briefly: In vivo DBH inhibition: heart dopamine level in spontaneously hypertensive rats. The following applies: Treated SHR's, 50 mg/kg, IP, 3 hours post dose; mean ± standard deviation; micrograms of dopamine per gram of heart tissue; *** p<.001 vs control. The method, then: In this test spontaneously hypertensive rats are dosed (i.p.) at 50 mg per kilogram of body weight and sacrificed three hours later.

Assay [3] addresses T1, dopamine beta-hydroxylase (DBH) (Bos taurus, UniProt P15101).
T1 sequence (P15101 33-610): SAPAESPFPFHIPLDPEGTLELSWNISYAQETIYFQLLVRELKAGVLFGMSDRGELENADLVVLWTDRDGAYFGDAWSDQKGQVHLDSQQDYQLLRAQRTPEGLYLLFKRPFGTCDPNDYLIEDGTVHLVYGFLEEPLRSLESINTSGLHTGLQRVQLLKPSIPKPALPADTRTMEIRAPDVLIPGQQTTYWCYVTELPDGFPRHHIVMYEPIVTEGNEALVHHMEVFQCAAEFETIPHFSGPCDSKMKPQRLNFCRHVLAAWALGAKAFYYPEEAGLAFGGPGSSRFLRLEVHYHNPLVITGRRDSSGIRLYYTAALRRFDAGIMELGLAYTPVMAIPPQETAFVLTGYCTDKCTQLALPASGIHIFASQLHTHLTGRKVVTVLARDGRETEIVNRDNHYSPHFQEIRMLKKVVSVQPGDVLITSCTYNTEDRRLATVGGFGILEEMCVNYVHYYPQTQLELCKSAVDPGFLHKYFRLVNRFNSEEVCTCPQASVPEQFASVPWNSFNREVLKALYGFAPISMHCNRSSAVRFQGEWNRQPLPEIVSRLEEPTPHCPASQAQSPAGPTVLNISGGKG
Nature of the assay: In vitro DBH inhibition: conversion of tyramine to octopamine, oxygen uptake measured with a polarographic electrode. Format: biochemical. The following applies: pH 5, 37°C preferred; concentration at which DBH activity was halved; read-out: IC₅₀. The method, then:
The DBH inhibitory properties of the compounds of this invention can readily be determined in vitro by standard and well known procedures for assaying conversion of tyramine to octopamine in the presence of dopamine beta-hydroxylase. Enzymatic oxygenation by DBH is determined in aqueous solution in the presence of molecular oxygen, an electron donor such as ascorbate, and the necessary cofactors for the enzyme at pH of 5 and a temperature of 20°-40°C, preferably 37°C. The test compound is added at the desired concentration, and the system is incubated.

In the case of “1-[(Fluoro-2-thienyl)methyl]-1,3-dihydro-2H-imidazole-2-thione [Compound 6]”, in assay [1], the “Max Change MBP” value is given as -42±17 mmHg and the “Max Change MBP (percent, in parentheses)” value was 25%. In assay [2], the “Heart DA” value is recorded as “Treated .045±.005*** µg/g”. Also, the IC50 in assay [3] was 2.9 µM.
For `S=c1[nH]ccn1Cc1cccs1` [Compound 1, 1,3-Dihydro-(2-thienylmethyl)-2H-imidazole-2-thione], in assay [1], the “Max Change MBP” value is on record as -30±21 mmHg and the “Max Change MBP (percent, in parentheses)” value is reported as 18%. Further, the “Heart DA” value in assay [2] is reported as “Treated .066±.005*** µg/g”.
The corresponding values for `S=c1[nH]ccn1Cc1ccsc1` [Compound 2, 1,3-Dihydro-1-(3-thienylmethyl)-2H-imidazole-2-thione] are -21±27 mmHg, 12% and “Treated .066±.012*** µg/g”.
On to `S=c1[nH]ccn1Cc1ccco1` [Compound 3, 1-(2-Furanylmethyl)-1,3-dihydro-2H-imidazole-2-thione], for which, in assay [2], the “Heart DA” value is “Treated .079±.004*** µg/g”.
Take `S=c1[nH]ccn1Cc1ccc(Cl)s1` [Compound 4, 1-[(5-Chloro-2-thienyl)methyl]-1,3-dihydro-2H-imidazole-2-thione]: in assay [1], the “Max Change MBP” value is -22±5 mmHg and the “Max Change MBP (percent, in parentheses)” value is recorded as 13%. For the same compound, in assay [2], the “Heart DA” value is “Treated .046±.009*** µg/g”.
Regarding `Cc1ccc(Cn2cc[nH]c2=S)s1` [Compound 5, 1,3-Dihydro-1-[(5-methyl-2-thienyl)methyl]-2H-imidazole-2-thione], in assay [1], the “Max Change MBP” value is -37±19 mmHg and the “Max Change MBP (percent, in parentheses)” value was found to be 10%. For the same compound, the “Heart DA” value in assay [2] is “Treated .048±.004*** µg/g”. In assay [3], the IC50 was 6 µM.
